GI50 and TGI data for ten compounds are collected here from PubChem BioAssay (NCI).

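Test compounds were applied to cells in 96-well plates for 48 hours at 5 doses. GI50 is the concentration that inhibits growth by half. TGI denotes the concentration required for complete inhibition of growth.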 Bounds are passed on as bounds.

Some test systems named below: MDA-MB-435; MCF7 breast; OVCAR-3 ovarian; RPMI-8226 leukemia; LOX IMVI melanoma; BT-549 breast; IGROV1 ovarian; SF-268 CNS; K-562 leukemia; CAKI-1 renal.
What all share (assay): NCI-60 cell line screen, 48 h

With `Oc1c(CCl)cc(Cl)cc1Cc1cc(Cl)cc(Cc2cc(Cl)cc(CCl)c2O)c1O`, the GI50 in the assay with MDA-MB-435 is 3.89 µM; in the assay on MCF7 breast it was 2730 nM; in the assay on OVCAR-3 ovarian, 3.59 µM; in the assay with RPMI-8226 leukemia it was 3.08 µM; with LOX IMVI melanoma, 3.27 µM; in the assay on BT-549 breast it was 2.71 µM. In addition, the GI50 with IGROV1 ovarian is 3.79 µM; with SF-268 CNS, 3.18 µM; with K-562 leukemia, 1.99 µM; with CAKI-1 renal, 3.37 µM. In addition, the TGI came out at 21.4 µM in the assay with MDA-MB-435; 10.9 µM in the assay with MCF7 breast; 15 µM in the assay on OVCAR-3 ovarian; 91.7 µM in the assay on RPMI-8226 leukemia; 12.2 µM with LOX IMVI melanoma; 11.5 µM in the assay on BT-549 breast. In addition, the TGI with IGROV1 ovarian is 16.7 µM; with SF-268 CNS, 62.1 µM; in the assay with K-562 leukemia, 13.4 µM; in the assay with CAKI-1 renal, 17.7 µM.

Take `CCCC(c1cc(C(C)(C)C)c(O)cc1C)c1cc(C(C)(C)C)c(O)cc1C`: the TGI in the assay with MDA-MB-435 turned out to be 7.18 µM; in the assay on MCF7 breast it was 4.85 µM; with OVCAR-3 ovarian it was 3.93 µM; in the assay with RPMI-8226 leukemia, 5.77 µM; in the assay on LOX IMVI melanoma, 3.43 µM; with BT-549 breast, 22.7 µM. Moreover, the TGI came out at 14.6 µM with IGROV1 ovarian, 15.1 µM in the assay with SF-268 CNS, 6.43 µM with K-562 leukemia and 15.3 µM with CAKI-1 renal.

Consider `CC(C)[C@]12O[C@H]1[C@@H]1O[C@]13[C@]1(O[C@H]1C[C@H]1C4=C(CC[C@@]13C)C(=O)OC4)[C@@H]2OC(=O)OC(C)(C)C`, for which the GI50 is 0.0122 µM in the assay on MDA-MB-435; less than 14.4 nM in the assay on MCF7 breast; 0.0171 µM with OVCAR-3 ovarian; 0.0195 µM in the assay with RPMI-8226 leukemia; less than 0.01 µM with LOX IMVI melanoma; 0.0172 µM in the assay on BT-549 breast. Besides, the GI50 with IGROV1 ovarian is 0.0164 µM; with SF-268 CNS, 0.0251 µM; with K-562 leukemia, 0.0199 µM; in the assay with CAKI-1 renal it was 0.0226 µM. Further, the TGI in the assay on MDA-MB-435 was 0.0478 µM; in the assay on MCF7 breast it was greater than 100 µM; in the assay on OVCAR-3 ovarian, 0.883 µM; in the assay on RPMI-8226 leukemia, greater than 42.5 µM; in the assay on LOX IMVI melanoma, greater than 100 µM; with BT-549 breast, 0.0616 µM. Also, the TGI in the assay with SF-268 CNS is 0.26 µM; in the assay with K-562 leukemia, greater than 100 µM; in the assay with CAKI-1 renal it was greater than 100 µM.

As to `OC1CCC(COC(c2ccccc2)(c2ccccc2)c2ccccc2)O1` (centres undefined), the TGI in the assay on MDA-MB-435 was 39.9 µM; in the assay on MCF7 breast, 33.3 µM; in the assay on OVCAR-3 ovarian it was 32.4 µM; in the assay on RPMI-8226 leukemia, 40.7 µM; in the assay with LOX IMVI melanoma, 34.3 µM; with BT-549 breast, 40.6 µM. In addition, the TGI in the assay on IGROV1 ovarian came out at 36.8 µM; in the assay on SF-268 CNS it was 33.6 µM; in the assay with K-562 leukemia, 41.1 µM; in the assay on CAKI-1 renal, 30.9 µM.

In the case of `Fc1ccc(-c2nn3c(COc4ccccc4Cl)nnc3s2)cc1Oc1ccccc1`, the GI50 is 33.2 µM with MDA-MB-435; 52500 nM in the assay on MCF7 breast; 22.5 µM in the assay with OVCAR-3 ovarian; 51.1 µM in the assay on RPMI-8226 leukemia; 22.3 µM in the assay on LOX IMVI melanoma; 41.1 µM in the assay with BT-549 breast. In addition, the GI50 in the assay on IGROV1 ovarian is 31 µM; with SF-268 CNS, 44.8 µM; in the assay with K-562 leukemia it was greater than 100 µM; with CAKI-1 renal, 19.4 µM. The TGI with MDA-MB-435 is greater than 100 µM; in the assay with MCF7 breast it was greater than 100 µM; with OVCAR-3 ovarian, 52.5 µM; in the assay on RPMI-8226 leukemia, greater than 100 µM; with LOX IMVI melanoma it was 51.9 µM; in the assay on BT-549 breast it was greater than 100 µM. Moreover, the TGI was greater than 100 µM with IGROV1 ovarian, greater than 100 µM in the assay on SF-268 CNS, greater than 100 µM in the assay on K-562 leukemia and 44 µM in the assay with CAKI-1 renal.

On to `CSc1nc(SC)c2cnn(-c3ccnc4cc(Cl)ccc34)c2n1`, for which the GI50 in the assay on MDA-MB-435 is 10.7 µM; in the assay on MCF7 breast, 2610 nM; in the assay on OVCAR-3 ovarian it was 6.87 µM; in the assay on RPMI-8226 leukemia, greater than 55.7 µM; with LOX IMVI melanoma it was greater than 59 µM; in the assay with BT-549 breast it was 43.3 µM. Further, the GI50 was 47.8 µM in the assay on IGROV1 ovarian, 19.7 µM in the assay on SF-268 CNS, greater than 61 µM in the assay on K-562 leukemia and 22.9 µM with CAKI-1 renal. The TGI in the assay with MDA-MB-435 was greater than 100 µM; in the assay with MCF7 breast, greater than 41 µM; in the assay on OVCAR-3 ovarian it was greater than 31.2 µM; with RPMI-8226 leukemia it was greater than 100 µM; with LOX IMVI melanoma it was greater than 100 µM; with BT-549 breast it was greater than 87.7 µM. Moreover, the TGI with IGROV1 ovarian is greater than 100 µM; in the assay on SF-268 CNS, 58.1 µM; with K-562 leukemia, greater than 100 µM; in the assay on CAKI-1 renal it was greater than 100 µM.

Turning to `CC(=O)NS(=O)(=O)c1ccc(-n2nc(-c3ccccc3)cc2-c2cc(O)ccc2O)cc1`, the GI50 is greater than 100 µM with MDA-MB-435; greater than 100000 nM with MCF7 breast; greater than 100 µM in the assay on OVCAR-3 ovarian; greater than 100 µM in the assay with RPMI-8226 leukemia; greater than 100 µM in the assay with LOX IMVI melanoma; greater than 100 µM in the assay on BT-549 breast. The GI50 in the assay on IGROV1 ovarian, in the assay on SF-268 CNS, in the assay on K-562 leukemia and in the assay with CAKI-1 renal was greater than 100 µM throughout. Also, the TGI with MDA-MB-435, in the assay with MCF7 breast, in the assay on OVCAR-3 ovarian, in the assay on RPMI-8226 leukemia, in the assay on LOX IMVI melanoma and in the assay on BT-549 breast was greater than 100 µM in each case. Further, the TGI in the assay with IGROV1 ovarian, in the assay on SF-268 CNS, in the assay with K-562 leukemia and with CAKI-1 renal was greater than 100 µM in each case.

For the compound `NS(=O)(=O)c1ccc(N=Nc2c(O)[nH]c3cccc(CCc4ccncc4)c23)cc1`, the GI50 is greater than 25 µM with MDA-MB-435; greater than 25000 nM in the assay on MCF7 breast; greater than 25 µM in the assay on OVCAR-3 ovarian; greater than 25 µM in the assay with RPMI-8226 leukemia; greater than 25 µM with LOX IMVI melanoma; greater than 25 µM in the assay with BT-549 breast. Moreover, the GI50 in the assay with IGROV1 ovarian, in the assay on SF-268 CNS, in the assay with K-562 leukemia and in the assay on CAKI-1 renal was greater than 25 µM each time. Moreover, the TGI in the assay with MDA-MB-435, in the assay on MCF7 breast, with OVCAR-3 ovarian, in the assay on RPMI-8226 leukemia, in the assay with LOX IMVI melanoma and in the assay with BT-549 breast was greater than 25 µM in each case. Moreover, the TGI in the assay on IGROV1 ovarian, with SF-268 CNS, in the assay on K-562 leukemia and in the assay on CAKI-1 renal was greater than 25 µM in each case.

For the compound `COc1cc2cc(Oc3ccc(NC(=O)Nc4ccc(F)c(C(F)(F)F)c4)cc3)c(C)nc2cc1OCCN1CCOCC1`, the GI50 in the assay on MDA-MB-435 was 1.91 µM; in the assay on MCF7 breast, 1460 nM; in the assay with OVCAR-3 ovarian, 2.94 µM; with RPMI-8226 leukemia, 1.12 µM; with LOX IMVI melanoma, 1.44 µM; with BT-549 breast, 2.44 µM. For the same compound, the GI50 is 2.69 µM with IGROV1 ovarian, 3.66 µM in the assay on SF-268 CNS, 0.88 µM in the assay on K-562 leukemia and 2.06 µM in the assay on CAKI-1 renal. The TGI turned out to be 3.9 µM in the assay on MDA-MB-435; 3.48 µM with MCF7 breast; 13.6 µM with OVCAR-3 ovarian; 4.25 µM with RPMI-8226 leukemia; 2.86 µM in the assay on LOX IMVI melanoma; 8.46 µM in the assay on BT-549 breast. The TGI with IGROV1 ovarian is 19.5 µM; in the assay with SF-268 CNS it was 19.8 µM; in the assay with K-562 leukemia it was 10.3 µM; with CAKI-1 renal it was 9.55 µM.

Turning to `CCOC(=O)Nc1ccc2c3c(cccc13)-c1ccccc1-2`, the GI50 in the assay on MDA-MB-435 is 0.862 µM; with MCF7 breast it was 1640 nM; in the assay with OVCAR-3 ovarian it was 2.72 µM; with RPMI-8226 leukemia, 5.51 µM; in the assay on LOX IMVI melanoma it was 4.77 µM; with BT-549 breast it was greater than 100 µM. Also, the GI50 was 1.98 µM in the assay on IGROV1 ovarian, 33.3 µM with SF-268 CNS, 4.12 µM in the assay on K-562 leukemia and 3.29 µM in the assay with CAKI-1 renal. The TGI in the assay with MDA-MB-435 was 3.54 µM; in the assay on MCF7 breast, greater than 100 µM; in the assay with OVCAR-3 ovarian it was 8.92 µM; in the assay on RPMI-8226 leukemia, greater than 100 µM; with LOX IMVI melanoma it was greater than 100 µM; with BT-549 breast, greater than 100 µM. In addition, the TGI in the assay on IGROV1 ovarian, in the assay with SF-268 CNS, in the assay on K-562 leukemia and in the assay with CAKI-1 renal was greater than 100 µM in each case.
